The values that follow come from paper PMC2707030 (Clinical cancer research : an official journal of the …, 2009).

The conditions of data set [1]: rats; cited from earlier work.
The conditions of data set [2]: cited from earlier work.
Data set [3] can be described thus: Population pharmacokinetics. It counts as in vivo, human.
In data set [4] the test system is ATP-binding cassette transporter ABCB1 (P-glycoprotein, MDR1). The settings on record: cited from earlier work.
[5] abbreviates: nonparametric bootstrap, 1342 converged of 1500 runs, 98 patients, final model.

Structures are written as SMILES.

Consider `C/C=C1\NC(=O)[C@H]2CSSCC/C=C/[C@H](CC(=O)N[C@H](C(C)C)C(=O)N2)OC(=O)[C@H](C(C)C)NC1=O` [romidepsin], for which the “Fraction of the dose excreted into the bile” value in data set [1] was 66%. Also, in data set [2] (dose 13 mg/m^2), the “Total clearance reported in adults” value is 4.8 L/h/m^2. Besides, in data set [2] (dose 17.8 mg/m^2), the “Mean CL reported in adults” value is 10.5 L/h/m^2. In addition, the “CL, non-carriers of ABCB1 2677 GA/AA” value in data set [3] (difference to carriers did not reach statistical criteria (ΔOFV = 3.4)) was found to be 16 L/h. In addition, the Estimated elimination half-life in data set [3] (following 4-hour infusion, 14 or 18 mg/m^2, final two-compartment model) is 3.5 h. Also, the “CL, carriers of ABCB1 2677 GA/AA” value in data set [3] (n=7, difference to non-carriers did not reach statistical criteria (ΔOFV = 3.4)) was 13 L/h. In data set [3] (setting [5]), the “CL, bootstrap analysis median (%RSE)” value was 15.9 (6.2) L/h; the “Q, bootstrap analysis median (%RSE)” value was 1.01 (14.7) L/h; the “V1, bootstrap analysis median (%RSE)” value is 9.71 (8.9) L; the “V2, bootstrap analysis median (%RSE)” value was 4.73 (11.1) L. Besides, the “Substrate of ABCB1” value in data set [4] is “substrate”.
